Test results taken from article PMC10570016, “Domain collapse and active site ablation generate a widespread animal mitochondrial seryl-tRNA synthetase” (Nucleic Acids Research, 2023).

Molecular target: T1, DmSLIMP/DmSerRS2α (Drosophila melanogaster, UniProt Q9VF85)
T1 construct: gene SerRS-m; co-expressed in E. coli BL21(DE3) from bicistronic pOPINFS; C-terminal 6His on DmSerRS2α, C-terminal Strep II on DmSLIMP; heterodimer; HisTrap; with Seryl-tRNA synthetase-like insect mitochondrial protein
T1 sequence (Q9VF85 22-417): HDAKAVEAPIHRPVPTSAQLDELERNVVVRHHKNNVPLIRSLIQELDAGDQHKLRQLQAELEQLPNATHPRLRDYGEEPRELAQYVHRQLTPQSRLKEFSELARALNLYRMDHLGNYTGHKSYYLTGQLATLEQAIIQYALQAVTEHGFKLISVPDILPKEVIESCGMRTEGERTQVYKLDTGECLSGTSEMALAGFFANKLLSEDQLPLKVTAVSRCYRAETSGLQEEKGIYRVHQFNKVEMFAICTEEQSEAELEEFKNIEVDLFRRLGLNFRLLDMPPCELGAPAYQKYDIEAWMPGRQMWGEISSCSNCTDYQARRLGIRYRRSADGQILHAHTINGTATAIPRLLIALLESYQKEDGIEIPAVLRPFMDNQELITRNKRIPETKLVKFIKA
T1 sequence (Q95T19 1-464 partner): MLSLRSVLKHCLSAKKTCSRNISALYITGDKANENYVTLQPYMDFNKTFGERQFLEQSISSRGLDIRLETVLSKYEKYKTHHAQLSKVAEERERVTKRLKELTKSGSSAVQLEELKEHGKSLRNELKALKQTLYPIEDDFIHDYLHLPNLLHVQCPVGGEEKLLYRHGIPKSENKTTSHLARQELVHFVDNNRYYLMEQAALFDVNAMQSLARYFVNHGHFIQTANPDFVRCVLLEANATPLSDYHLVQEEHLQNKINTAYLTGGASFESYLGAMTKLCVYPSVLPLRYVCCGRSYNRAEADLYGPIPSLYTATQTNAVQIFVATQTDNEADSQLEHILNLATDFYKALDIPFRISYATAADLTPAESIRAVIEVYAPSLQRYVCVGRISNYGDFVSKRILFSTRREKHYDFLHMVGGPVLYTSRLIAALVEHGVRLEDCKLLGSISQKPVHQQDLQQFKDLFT
Experiment: radiometric tRNA aminoacylation, scintillation counting
Assay type: biochemical
Conditions: co-substrates ATP and in vitro transcribed Drosophila mt-tRNA-Ser(GCU); Mg2+; labelled compound; pH 7.2, 25 °C (mutant SerRS and tRNA assays pH 7.5)

## N[C@@H](CO)C(=O)O [serine]
  radiometric tRNA aminoacylation, scintillation counting: In all cases the aminoacylation activity of DmSLIMP/DmSerRS2α was not affected by the presence of the LON domain
